Literature values in paper PMC6768323, “Adverse Maternal, Fetal, and Postnatal Effects of Hexafluoropropylene Oxide Dimer Acid (GenX) from Oral Gestational Exposure in Sprague-Dawley Rats” (Environmental Health Perspectives, 2019).
Where two headings read alike, the source gives them in different places.

Tested on: rat
Details: cited from earlier work

In the case of `O=S(=O)(O)C(F)(F)C(F)(F)C(F)(F)C(F)(F)C(F)(F)C(F)(F)C(F)(F)C(F)(F)F` [PFOS, perfluorooctane sulfonate], the “dose with increased neonatal mortality” value (ref Lau et al. 2003) is listed as at least 3 mg/kg, the “dose with lower pup body weights” value (ref Lau et al. 2003) is listed as at least 2 mg/kg and the “dose with neonatal mortality” value (ref Luebker et al. 2005a, 2005b) is listed as at least 1.6 mg/kg. The “dose with lower pup body weights” value (ref Luebker et al. 2005b) was at least 0.4 mg/kg.
